# Laboratory results from patent US10859565B2, “High throughput 3D assay for immune cell and drug homing, migration and tumor cytotoxicity” (Corning Incorporated, priority 2017, dated 2020).
# Columns and labels:
# Type in all cases: cell-based
# NK-92MI cells = assay: NK-92MI (NK) cell migration through HTS Transwell towards A549/GFP 3D tumor spheroids, flow cytometry; details: 24 hours
# Method: (§1) A549/GFP Cells (Cell Biolabs, Inc. Cat. No. AKR-209), were seeded into 96 well spheroid microplates (Corning Cat. No. 4515) at 2,000 cells per well in Iscove's Modification of DMEM (IMDM) (Corning Cat. No. 10-016-CM) supplemented with 10% fetal bovine serum (FBS) (Corning Cat. No. 35-010-CV). The next day, medium was replaced with […] IMDM 10% FBS containing 30 ng/mL of Human SDF-1 alpha (SDF-1α)/CXCL12 (Shenandoah Biotechnology Inc™ Cat. No. 100-20) or vehicle control. NK92-MI cells were stained for one hour with 80 μM CellTracker™ Blue CMHC Dye (Molecular Probes™ Cat. No. C2110) while simultaneously being treated with 2 μg/mL prostaglandin E2 (PGE2) (Tocris Cat. No. 2296) or vehicle control in IMDM without serum for an hour. NK-92MI cells were then re-suspended in serum free IMDM and seeded into the apical chamber of the inserts at 50,000 cells/insert. After 24 hours, inserts were removed and spheroid microplates were processed for flow cytometry. […] Cells were then analyzed via flow cytometry utilizing the Miltenyi Biotec MacsQuant®.
# (§2) NK-92MI migration and tumoricidal activity of A549/GFP cells was assessed utilizing the commercially available Corning HTS 96 Transwell inserts with the Corning 96 well spheroid microplate, as shown in FIG. 4 and FIG. 5. […]
# LN229 spheroids = assay: Cytotoxicity of LN229 spheroids after direct culture with compounds; details: 48 hours of direct culture; N=12 wells per concentration
# A549/GFP tumor cells = assay: NK induced cytotoxicity of A549/GFP tumor cells cultured in 3D; details: NK cells exposed to SDF-1α without PGE2; 24 hours
# Method: as §1, §2
molecule,measurement,setting,value
"CCCCC[C@H](O)/C=C/[C@H]1[C@H](O)CC(=O)[C@@H]1C/C=C\CCCC(=O)O [PGE2, prostaglandin E2]",NK migration,NK-92MI cells; NK cells exposed to 2 μg/mL PGE2 for an hour,significantly decreased
COc1cc(/C=C/C(=O)N2CCC=CC2=O)cc(OC)c1OC [Piperlongumine],cytotoxicity of LN229 spheroids,LN229 spheroids,dose dependent cytotoxicity
SDF-1α,viability of A549/GFP tumor cells (tumoricidal activity of NK cells),A549/GFP tumor cells,lowest viability
same,NK migration,NK-92MI cells; 30 ng/mL SDF-1α present with the tumor spheroid in the spheroid microplate,significantly increased
